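These data come from cells grown in 96-well plates and exposed to compound for 48 hours at five concentrations. TGI is the concentration that stops growth completely.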
Columns and labels:
Assay in all cases: inhibition of tumour cell growth, NCI panel, 48 h
HCT-116 colon = tested on: HCT-116 colon
HCT-15 colon = tested on: HCT-15 colon
HT29 colon = tested on: HT29 colon
U251 CNS = tested on: U251 CNS
SN12C renal = tested on: SN12C renal
SK-MEL-5 melanoma = tested on: SK-MEL-5 melanoma
SF-295 CNS = tested on: SF-295 CNS
CCRF-CEM leukemia = tested on: CCRF-CEM leukemia
NCI-H522 lung = tested on: NCI-H522 lung
MCF7 breast = tested on: MCF7 breast

| Structure (SMILES) | TGI (HCT-116 colon) | TGI (HCT-15 colon) | TGI (HT29 colon) | TGI (U251 CNS) | TGI (SN12C renal) | TGI (SK-MEL-5 melanoma) | TGI (SF-295 CNS) | TGI (CCRF-CEM leukemia) | TGI (NCI-H522 lung) | TGI (MCF7 breast) |
| --- | --- | --- | --- | --- | --- | --- | --- | --- | --- | --- |
| COc1ccc(C2=Nc3cc(C)c(C)cc3NC(c3ccccc3)C2)cc1 (stereo not given) | > 100 µM | > 100 µM | > 100 µM | > 100 µM | > 100 µM | > 100 µM | > 100 µM | > 100 µM | > 100 µM | > 100 µM |
| CN(C)c1nc(N)nc(CS)n1 | > 100 µM | > 100 µM | > 100 µM | > 100 µM | > 100 µM | > 100 µM | > 100 µM | 98.9 µM | > 100 µM | > 100 µM |
| O=S(Nc1ccccc1)c1ccc(N2CCOCC2)cc1 (stereo not given) | > 100 µM | > 100 µM | > 100 µM | > 100 µM | > 100 µM | > 100 µM | > 100 µM | > 100 µM | > 100 µM | > 100 µM |
| CSCSSC | > 100 µM | > 100 µM | > 100 µM | > 100 µM | > 100 µM | > 100 µM | > 100 µM | > 100 µM | > 100 µM | > 100 µM |
| C[n+]1cccc2c(=O)c3ccccc3oc21 | > 100 µM | > 100 µM | > 100 µM | > 100 µM | > 100 µM | > 100 µM | > 100 µM | > 100 µM | > 100 µM | > 100 µM |
| COc1ccc(CC(N)c2ccc(OC)cc2)cc1 (stereo not given) | > 100 µM | > 100 µM | > 100 µM | > 100 µM | > 100 µM | > 100 µM | > 100 µM | > 100 µM | > 100 µM | > 100 µM |
| CCOP(=O)(/C=C\n1cc(C)c(=O)[nH]c1=O)OCC | > 100 µM | > 100 µM | > 100 µM | > 100 µM | > 100 µM | > 100 µM | > 100 µM | > 100 µM | > 100 µM | > 100 µM |
| CC(NC(=O)C(NC(=O)CNC(=O)OC(C)(C)C)C(C)C)C(=O)Oc1c(Cl)c(Cl)c(Cl)c(Cl)c1Cl (stereo not given) | 31.2 µM | 33.2 µM | 68.5 µM | 48.3 µM | 42 µM | 33.9 µM | 34.3 µM | > 100 µM | 45.2 µM | 74.1 µM |
| OCCO/N=C1\C(c2c(O)[nH]c3ccccc23)=Nc2ccccc21 | > 100 µM | > 100 µM | > 100 µM | > 100 µM | > 100 µM | > 100 µM | > 100 µM | > 100 µM | > 100 µM | > 100 µM |
| Cc1cccc(Nc2nn3c(=O)c4c5c(sc4nc3s2)CCCC5)c1 | > 100 µM | > 100 µM | > 100 µM | > 100 µM | > 100 µM | > 100 µM | 14.4 µM | > 100 µM | > 100 µM | > 100 µM |
| CCN(CC)N1C(=O)[N+](CC)(CC)N=C1[O-] | > 100 µM | > 100 µM | > 100 µM | > 100 µM | > 100 µM | > 100 µM | > 100 µM | > 100 µM | > 100 µM | > 100 µM |
| O=c1cc(N2CCCC2)[nH]c(=O)n1Cc1ccccc1 | > 100 µM | > 100 µM | > 100 µM | > 100 µM | > 100 µM | > 100 µM | > 100 µM | > 100 µM | > 100 µM | > 100 µM |
| N#CC1(C#N)NC(c2cccs2)C(C#N)(C#N)NC1c1cccs1 (stereo not given) | > 100 µM | > 100 µM | > 100 µM | 64.5 µM | > 100 µM | 74.2 µM | > 100 µM | 64.3 µM | 88.4 µM | 51.8 µM |
| Cc1ccc(OCC2OC(n3cnc4c(Cl)nc(N)nc43)CC2Oc2ccc(C)cc2)cc1 (stereo not given) | > 100 µM | > 100 µM | > 100 µM | > 100 µM | > 100 µM | > 100 µM | > 100 µM | > 100 µM | 12.1 µM | > 13.3 µM |
| Cc1ccc(OCC2OC(n3cnc4nc(N)nc(Cl)c43)CC2Oc2ccc(C)cc2)cc1 (stereo not given) | > 100 µM | 59.3 µM | 71.1 µM | > 100 µM | 41.4 µM | 41.3 µM | 84.1 µM | > 100 µM | 47.8 µM | 49 µM |
| COP(=O)(OC)C(Cc1cn(C(C)=O)c2ccccc12)C(=O)O (stereo not given) | > 100 µM | > 100 µM | > 100 µM | > 100 µM | > 100 µM | > 100 µM | > 100 µM | > 100 µM | > 100 µM | > 100 µM |
| C=C/C(C)=C\CC1[C@](C)(O)CC[C@H]2C(C)(C)C(=O)CC[C@]12C (stereo not given in full) | > 100 µM | > 100 µM | > 100 µM | > 100 µM | > 100 µM | > 100 µM | > 100 µM | > 100 µM | > 100 µM | > 100 µM |
| O=[N+]([O-])c1ccc2sc(C=Nc3cnccn3)cc2c1 | > 100 µM | > 100 µM | > 100 µM | > 100 µM | > 100 µM | > 100 µM | > 100 µM | 40.4 µM | > 100 µM | > 100 µM |
| COc1ccc2c3c1OC1C(=O)C=CC4(CC2)N(C)CCC314 (stereo not given) | 29.1 µM | > 100 µM | > 100 µM | 53 µM | > 100 µM | 24.4 µM | > 100 µM | 51.5 µM | 33 µM | > 100 µM |
| CC(C)CNc1nc2ncnc(N)c2[nH]1 | > 100 µM | > 100 µM | > 100 µM | > 100 µM | > 100 µM | > 100 µM | > 100 µM | > 100 µM | > 100 µM | > 100 µM |
| O=C1NC(=O)C(C(CC(=O)c2ccc([N+](=O)[O-])cc2)c2ccccc2)C(=O)N1 (stereo not given) | 28 µM | > 100 µM | > 100 µM | > 100 µM | > 100 µM | > 100 µM | 54.9 µM | > 100 µM | > 100 µM | 27 µM |
| O=C1C[C@@H](C(=O)OCc2ccccc2)NC(=O)C[C@@H](C(=O)OCc2ccccc2)NC(=O)C[C@@H](C(=O)OCc2ccccc2)N1 | > 100 µM | > 100 µM | > 100 µM | > 100 µM | > 100 µM | > 100 µM | > 100 µM | 2.01 µM | > 100 µM | > 100 µM |
| Cc1cc(S(=O)(=O)N/C(=C(\C#N)C(=O)c2ccc(Cl)cc2)[n+]2ccc(N(C)C)cc2)c([S-])cc1Cl | 37.3 µM | > 100 µM | 95.1 µM | > 100 µM | > 100 µM | > 100 µM | > 100 µM | > 100 µM | > 100 µM | > 100 µM |
| O=S(=O)(c1ccc(NC2=NC(c3ccc(O)cc3)(c3ccccc3O)c3ccccc32)cc1)c1ccc(NC2=NC(c3ccc(O)cc3)(c3ccccc3O)c3ccccc32)cc1 (stereo not given) | 25.2 µM | > 81 µM | > 52.7 µM | > 100 µM | > 29.9 µM | > 100 µM | > 53.2 µM | > 100 µM | 4.76 µM | > 100 µM |
| O=C(NCCCCCCCCCCCCNC(=O)Nc1cccc2ccccc12)Nc1cccc2ccccc12 | 34.3 µM | 36.8 µM | 40.8 µM | 31.8 µM | 31.6 µM | 46.2 µM | 27.7 µM | 33.4 µM | 28.9 µM | 35.1 µM |
| NC(=O)NNc1nc(-c2ccccc2)cs1 | > 100 µM | > 100 µM | > 100 µM | > 100 µM | > 100 µM | > 100 µM | > 100 µM | > 100 µM | > 100 µM | > 100 µM |

From PubChem BioAssay (NCI)
